Source: patent US20050009007A1 (priority 2003, published 2005)

Tested on: giant synaptic terminal of depolarizing bipolar cells from the goldfish retina
Assay type: cell-based
Settings: n=7

O=C(O)CN(CC(=O)O)c1ccccc1OCCOc1ccccc1N(CC(=O)O)CC(=O)O [BAPTA] was tested. Which “increase in area of the footprint triggered by depolarization” value did it give?
The value was “completely blocked”.
